Measurements as given in ChEMBL document CHEMBL1201862, “PubChem BioAssay data set” (2004).
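Five compound concentrations were applied to cells in 96-well plates for 48 hours; endpoints were derived by simple linear interpolation of the resulting dose-response curve. GI50 is the concentration that inhibits growth by half.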 Active and inactive are the calls of the source. Cut-off read from the data, not from the text of the source: active = GI50 up to about 1.1 µM and inactive = higher.

Columns and labels:
Experiment in all cases: NCI tumour cell line growth inhibition, 48 h
M14 = test system: M14
786-0 = test system: 786-0
SK-OV-3 = test system: SK-OV-3
UACC-257 = test system: UACC-257
ACHN = test system: ACHN
UO-31 = test system: UO-31
SR = test system: SR
COLO 205 = test system: COLO 205
HL-60 = test system: HL-60
U-251 = test system: U-251
HOP-62 = test system: HOP-62
LOX IMVI = test system: LOX IMVI
NCI-H522 = test system: NCI-H522
CCRF-CEM = test system: CCRF-CEM
TK-10 = test system: TK-10
UACC-62 = test system: UACC-62
SK-MEL-2 = test system: SK-MEL-2

SMILES | GI50 (M14) | GI50 (786-0) | GI50 (SK-OV-3) | GI50 (UACC-257) | GI50 (ACHN) | GI50 (UO-31) | GI50 (SR) | GI50 (COLO 205) | GI50 (HL-60) | GI50 (U-251) | GI50 (HOP-62) | GI50 (LOX IMVI) | GI50 (NCI-H522) | GI50 (CCRF-CEM) | GI50 (TK-10) | GI50 (UACC-62) | GI50 (SK-MEL-2)
CC1(CO)OC(n2cc(C(=O)NC(=O)OCc3ccccc3)c(=O)[nH]c2=O)CC1O (stereo not given) | > 100 µM (inactive) | > 100 µM (inactive) | > 100 µM (inactive) | > 100 µM (inactive) | > 100 µM (inactive) | > 100 µM (inactive) | > 100 µM (inactive) | > 100 µM (inactive) | > 100 µM (inactive) | > 100 µM (inactive) | > 100 µM (inactive) | > 100 µM (inactive) | > 100 µM (inactive) | > 100 µM (inactive) | > 100 µM (inactive) | > 100 µM (inactive) | –
O=S(=O)(c1cccc(N=C=S)c1)c1cccc(N=C=S)c1 | 11.4 µM (inactive) | 16 µM (inactive) | 19.2 µM (inactive) | 20.4 µM (inactive) | 18.6 µM (inactive) | 28.7 µM (inactive) | – | 19.5 µM (inactive) | 21.7 µM (inactive) | 18.9 µM (inactive) | 11.3 µM (inactive) | 17.7 µM (inactive) | 16.7 µM (inactive) | 5.51 µM (inactive) | 20 µM (inactive) | 19.1 µM (inactive) | 18.5 µM (inactive)
O=C(c1ccccc1)C(C(=O)c1ccccc1)C1(O)C(=O)c2ccccc2C1=O | 26.9 µM (inactive) | 26.9 µM (inactive) | 48.8 µM (inactive) | 38.4 µM (inactive) | 31.9 µM (inactive) | 36.1 µM (inactive) | 29.1 µM (inactive) | 45.4 µM (inactive) | 16.7 µM (inactive) | 21 µM (inactive) | 29.4 µM (inactive) | 32.4 µM (inactive) | 14.1 µM (inactive) | 20.4 µM (inactive) | 3.01 µM (inactive) | 32.6 µM (inactive) | 6.17 µM (inactive)
O=[N+]([O-])c1ccc(C2=NN(c3ccccc3)C[N+](c3ccc(Br)cc3)=N2)cc1 | > 100 µM (inactive) | > 100 µM (inactive) | > 100 µM (inactive) | > 100 µM (inactive) | > 100 µM (inactive) | > 100 µM (inactive) | 96.8 µM (inactive) | > 100 µM (inactive) | – | 71.3 µM (inactive) | > 100 µM (inactive) | – | 38.1 µM (inactive) | – | > 100 µM (inactive) | > 100 µM (inactive) | > 100 µM (inactive)
CC1=C(C(=O)Nc2ccccc2C)C(c2ccc(N(C)C)cc2)C(C(=O)Nc2ccccc2C)=C(C)N1 | – | 72.3 µM (inactive) | > 100 µM (inactive) | 71.6 µM (inactive) | 67.6 µM (inactive) | 55.2 µM (inactive) | – | > 100 µM (inactive) | 19 µM (inactive) | > 100 µM (inactive) | 28.6 µM (inactive) | 56.8 µM (inactive) | 37.8 µM (inactive) | 31.8 µM (inactive) | > 100 µM (inactive) | 44.3 µM (inactive) | 36.2 µM (inactive)
CN/C=C(/c1ccc(OC)cc1)C(O)c1ccc(OC)c(OC)c1 (stereo not given) | > 100 µM (inactive) | > 100 µM (inactive) | > 100 µM (inactive) | > 100 µM (inactive) | > 100 µM (inactive) | > 100 µM (inactive) | > 100 µM (inactive) | > 100 µM (inactive) | > 100 µM (inactive) | > 100 µM (inactive) | > 100 µM (inactive) | > 100 µM (inactive) | > 100 µM (inactive) | > 100 µM (inactive) | > 100 µM (inactive) | > 100 µM (inactive) | > 100 µM (inactive)
OCC(O)CNc1ccnc2cc(Cl)ccc12 (stereo not given) | > 100 µM (inactive) | > 100 µM (inactive) | > 100 µM (inactive) | > 100 µM (inactive) | > 100 µM (inactive) | > 100 µM (inactive) | > 100 µM (inactive) | > 100 µM (inactive) | > 100 µM (inactive) | > 100 µM (inactive) | > 100 µM (inactive) | > 100 µM (inactive) | > 100 µM (inactive) | > 100 µM (inactive) | > 100 µM (inactive) | > 100 µM (inactive) | > 100 µM (inactive)
COc1ccc2c3c([nH]c2c1[N+](=O)[O-])C(C)N(C(=O)/C=C/c1ccccc1)CC3 (stereo not given) | 5.92 µM (inactive) | 12.7 µM (inactive) | – | 3.83 µM (inactive) | 9.77 µM (inactive) | 28 µM (inactive) | 3.92 µM (inactive) | 3.46 µM (inactive) | 2.64 µM (inactive) | 7.01 µM (inactive) | 5.28 µM (inactive) | 2.92 µM (inactive) | 2.9 µM (inactive) | 3.29 µM (inactive) | 60.3 µM (inactive) | 2.07 µM (inactive) | 10.7 µM (inactive)
CN(C)c1ccc2c(c1)C(=O)N(OS(=O)(=O)c1ccc([N+](=O)[O-])cc1)C2=O | 17.4 µM (inactive) | 19.3 µM (inactive) | > 100 µM (inactive) | 25.6 µM (inactive) | 24.7 µM (inactive) | 23.1 µM (inactive) | 22.4 µM (inactive) | 24.3 µM (inactive) | 28.6 µM (inactive) | 18.9 µM (inactive) | 37.1 µM (inactive) | – | 15 µM (inactive) | 18.7 µM (inactive) | 59 µM (inactive) | 17.1 µM (inactive) | 29.2 µM (inactive)
Nc1nc(N)c(-c2ccccc2)c(C(=O)Nc2ccccc2)n1 | > 100 µM (inactive) | > 100 µM (inactive) | > 100 µM (inactive) | > 100 µM (inactive) | > 100 µM (inactive) | > 100 µM (inactive) | – | > 100 µM (inactive) | – | > 100 µM (inactive) | – | > 100 µM (inactive) | > 100 µM (inactive) | > 100 µM (inactive) | > 100 µM (inactive) | > 100 µM (inactive) | > 100 µM (inactive)
C/C(CCn1[nH]c(=O)ccc1=O)=N\N=C(N)N | > 100 µM (inactive) | > 100 µM (inactive) | – | > 100 µM (inactive) | > 100 µM (inactive) | > 100 µM (inactive) | > 100 µM (inactive) | – | > 100 µM (inactive) | – | > 100 µM (inactive) | > 100 µM (inactive) | – | > 100 µM (inactive) | > 100 µM (inactive) | > 100 µM (inactive) | > 100 µM (inactive)
NC1=C(NC(=O)Cc2ccccc2F)C(=O)c2ccccc2C1=O | > 100 µM (inactive) | 27.1 µM (inactive) | – | 29.6 µM (inactive) | 76.9 µM (inactive) | 92.7 µM (inactive) | – | > 100 µM (inactive) | 88.3 µM (inactive) | 36.5 µM (inactive) | 25.5 µM (inactive) | – | 21.6 µM (inactive) | > 100 µM (inactive) | 41.2 µM (inactive) | 37.8 µM (inactive) | 14.3 µM (inactive)
Nc1nc(CCl)nc(Nc2ccccc2)n1 | 16.9 µM (inactive) | 2 µM (inactive) | – | 15.9 µM (inactive) | 27 µM (inactive) | 28.5 µM (inactive) | 12.9 µM (inactive) | 21.8 µM (inactive) | 3.27 µM (inactive) | 3.99 µM (inactive) | 16.3 µM (inactive) | – | 1.75 µM (inactive) | 2.14 µM (inactive) | 24 µM (inactive) | 19 µM (inactive) | 18.8 µM (inactive)
COc1ccc(NCc2cc(OC)c(OC)c(OC)c2)cc1 | 0.457 µM (active) | 0.647 µM (active) | 0.504 µM (active) | – | – | – | – | 0.233 µM (active) | 0.115 µM (active) | 0.439 µM (active) | 0.378 µM (active) | 0.519 µM (active) | 0.372 µM (active) | – | – | 0.271 µM (active) | 0.245 µM (active)
Cn1c(NC(=O)NC23CC4CC(CC(C4)C2)C3)nc2ccccc21 | 47.8 µM (inactive) | 17.1 µM (inactive) | 17.4 µM (inactive) | 94.2 µM (inactive) | 27.5 µM (inactive) | > 100 µM (inactive) | > 100 µM (inactive) | > 100 µM (inactive) | > 100 µM (inactive) | 48.8 µM (inactive) | 30.5 µM (inactive) | > 100 µM (inactive) | 78.7 µM (inactive) | – | 39.5 µM (inactive) | 40.1 µM (inactive) | 71.3 µM (inactive)
O=S(=O)(SCCCCSS(=O)(=O)c1ccc(Cl)cc1)c1ccc(Cl)cc1 | 14.6 µM (inactive) | 9.68 µM (inactive) | 15.3 µM (inactive) | 16.6 µM (inactive) | 16.3 µM (inactive) | 9.04 µM (inactive) | – | 14.9 µM (inactive) | 3.24 µM (inactive) | 8.36 µM (inactive) | 20.1 µM (inactive) | 3.39 µM (inactive) | 5.06 µM (inactive) | 1.85 µM (inactive) | 21.3 µM (inactive) | 12.2 µM (inactive) | 14.9 µM (inactive)
CCNC(=O)c1ccc(C)c(/N=N/N(C)C)c1 | > 100 µM (inactive) | > 100 µM (inactive) | – | > 100 µM (inactive) | > 100 µM (inactive) | > 100 µM (inactive) | – | – | – | > 100 µM (inactive) | > 100 µM (inactive) | > 100 µM (inactive) | 81.1 µM (inactive) | – | > 100 µM (inactive) | > 100 µM (inactive) | > 100 µM (inactive)
CC(C)CCCC(C)C1CCC2C3CC([N+](=O)[O-])=C4CC(O)CCC4(C)C3CCC12C (stereo not given) | 13.4 µM (inactive) | 16.9 µM (inactive) | – | 10.8 µM (inactive) | 43.4 µM (inactive) | – | 15 µM (inactive) | 24.3 µM (inactive) | 25 µM (inactive) | 15.5 µM (inactive) | 19.9 µM (inactive) | 19.6 µM (inactive) | 17.5 µM (inactive) | 18.2 µM (inactive) | 21 µM (inactive) | 19.9 µM (inactive) | 12.4 µM (inactive)
